Laboratory results reported in patent US8853228B2, “Heterocyclic analogs of propargyl-linked inhibitors of dihydrofolate reductase” (University of Connecticut, priority 2011, dated 2014).
≈ marks a conversion by molar mass, not a printed value. Like-named read-outs stand apart in the source and are kept apart here.

Key:
[1] = target: CgDHFR (Candida glabrata (strain ATCC 2001 / BCRC 20586 / JCM 3761 / NBRC 0622 / NRRL Y-65 / CBS 138) (Yeast) (Nakaseomyces glabratus), UniProt Q6FPH0); assay: biochemical; conditions: for Selectivity: Table 7, hDHFR vs CgDHFR
Chain of CgDHFR (Q6FPH0 1-217): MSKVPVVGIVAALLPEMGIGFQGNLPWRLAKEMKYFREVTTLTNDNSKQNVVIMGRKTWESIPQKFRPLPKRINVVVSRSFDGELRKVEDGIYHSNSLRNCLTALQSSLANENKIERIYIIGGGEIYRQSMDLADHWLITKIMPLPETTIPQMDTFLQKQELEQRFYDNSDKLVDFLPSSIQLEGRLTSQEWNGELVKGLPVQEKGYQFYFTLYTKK
Description: CgDHFR: The gene coding CgDHFR was amplified by PCR from C. glabrata genomic DNA obtained from ATCC. The gene was inserted in a pET41 vector that includes a C-terminal histidine tag for nickel affinity chromatography. E. coli cells were transformed and the resulting plasmid was verified by sequencing. The protein was expressed in E. coli BL21(DE3) cells with isopropyl β-D-thiogalactoside induction. Following growth, the cells were lysed with BugBuster (Novagen) and centrifuged; the supernatant was loaded on a Ni-NTA column. The column was washed with 20 mM Tris (pH 8.0)/0.4 M NaCl and the protein was eluted using a gradient of 20 mM Tris (pH 8.0), 0.3 M NaCl, 20% glycerol, 0.1 mM EDTA, 2 mM DTT, 250 mM imidazole. Fractions containing CgDHFR were identified by SDS-PAGE, combined and desalted using a PD-10 column with a buffer containing 20 mM Tris pH 8.0, 20% glycerol, 0.1 mM EDTA and 2 mM DTT. The protein was concentrated to 13 mg/mL.
(§1) Enzyme and inhibitor were allowed to incubate for 5 min before adding dihydrofolate to initiate the reaction. Enzyme assays were performed at least four times. IC50 values and their standard deviations were calculated in the presence of varying concentrations of inhibitor near the IC50 concentration.

[2] = system: C. glabrata; assay: Antifungal assay (MIC, Alamar Blue); assay type: cell-based, Candida glabrata; conditions: for MIC (Cg): YM media
Method: Antifungal assays were performed using C. glabrata as a suspension in 50% glycerol at −78° C. For susceptibility testing, a streak of stock culture was made on SDA agar and grown at 30° C. for 48 h. One pure colony of the test organism was recovered from the plate, suspended in appropriate media and grown in a 5 mL shake flask culture. A sample of the shake flask culture was diluted to 1×10^5 cells/mL in media and added to 96-well test plates (100 μL per well) containing test compounds dispensed in DMSO (1 μL). Amphotericin and ketoconazole were used as controls. After an incubation period determined from the strain specific doubling time, Alamar Blue (10 μL) was added, allowed to incubate; each well was scored for dye reduction.
Several representative compounds were also evaluated in thymidine-depleted media. It has been shown that high levels of thymidine interfere with accurate susceptibility testing of antifolates. To compensate for this, antifolates are frequently evaluated in a controlled minimal media with a low thymidine concentration. […] In addition, the compounds were also evaluated for mammalian cell toxicity using MCF-10 and HepG2 cell lines. Cellular selectivity is reported as the IC50 value for the MCF-10 human cell line divided by the MIC value (μg/mL) (Table 8).

[3] = target: hDHFR (Homo sapiens (Human), UniProt P00374); assay: hDHFR enzyme inhibition assay; assay type: biochemical; conditions: read-out: IC50 (hDHFR)
Chain of hDHFR (P00374 whole entry): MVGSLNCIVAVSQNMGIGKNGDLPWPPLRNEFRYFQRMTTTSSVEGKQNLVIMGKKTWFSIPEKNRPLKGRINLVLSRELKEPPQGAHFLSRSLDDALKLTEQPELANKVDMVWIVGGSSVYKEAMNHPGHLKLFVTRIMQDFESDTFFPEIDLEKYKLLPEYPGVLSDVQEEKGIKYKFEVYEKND
Method: hDHFR: The gene for hDHFR was amplified using PCR from cDNA obtained from ATCC. The gene was inserted in a pET41 vector with a C-terminal histidine tag for affinity chromatography. The resulting construct was verified by sequencing. The hDHFR protein was expressed in E. coli and purified using a nickel affinity column.
as §1
(§2) Enzyme inhibition assays were performed by monitoring the rate of NADPH oxidation by the DHFR enzyme at an absorbance of 340 nm. Assays were performed in the presence of saturating concentrations of NADPH and initiated with dihydrofolate. All assays were completed at 25° C. in a buffer containing 20 mM TES pH 7.0, 50 mM KCl, 10 mM 2-mercaptoethanol, 0.5 mM EDTA and 1 mg/mL BSA. Inhibition was measured at least three times with inhibitor concentrations near the IC50 value and the average IC50 value is reported with a standard deviation.

[4] = target: ChDHFR-TS (Cryptosporidium hominis, UniProt Q27552); assay: ChDHFR enzyme inhibition assay; assay type: biochemical
Chain of ChDHFR-TS (Q27552 1-521): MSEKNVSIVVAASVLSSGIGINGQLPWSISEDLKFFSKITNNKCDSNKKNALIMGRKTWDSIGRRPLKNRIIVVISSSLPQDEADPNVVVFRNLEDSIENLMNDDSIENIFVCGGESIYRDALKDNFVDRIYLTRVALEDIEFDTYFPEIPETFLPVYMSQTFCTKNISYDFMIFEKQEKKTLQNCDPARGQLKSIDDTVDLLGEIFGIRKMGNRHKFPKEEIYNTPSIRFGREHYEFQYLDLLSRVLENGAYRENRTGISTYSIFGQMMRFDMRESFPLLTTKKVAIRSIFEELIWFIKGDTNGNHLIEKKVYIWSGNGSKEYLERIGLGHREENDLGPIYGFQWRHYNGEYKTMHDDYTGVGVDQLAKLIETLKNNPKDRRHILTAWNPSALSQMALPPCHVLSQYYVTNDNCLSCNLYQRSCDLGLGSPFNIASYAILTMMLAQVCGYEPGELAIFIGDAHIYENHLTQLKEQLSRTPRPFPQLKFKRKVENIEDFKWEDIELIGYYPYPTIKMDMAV
Method: as §1
Compounds were evaluated in spectrophotometric enzyme assays using ChDHFR-TS and hDHFR. Inhibition constants (IC50) were measured (see Table 4). […] The compound abbreviations in Table 4 refer to the following compounds: […]

[5] = system: MCF-10 cells; assay: Mammalian cell toxicity, MCF-10; assay type: cell-based, human; conditions: cytotoxicity, Table 6
Method: Adherent cell lines were maintained in Eagle's Minimal Essential Media (Sigma-Aldrich, St. Louis, Mo., USA) with 2 mM glutamine and Earle's Balanced Salt Solution (HyClone, Logan, Utah, USA) adjusted to contain 1.5 g/L sodium bicarbonate, 0.1 mM non-essential amino acids, 1 mM sodium pyruvate and 10% fetal calf serum. Fetal calf serum used in these assays was lot matched throughout. […] Toxicity assays were conducted between passages 10-20. Target compound toxicity was measured by incubating the test compound with the cells for 4 h, washing the cells and finally treating the cells with Alamar Blue. After 12-24 h, the fluorescence of the reduced dye was measured. Fluorescence intensity as a function of test compound concentration was fit to the Fermi equation, using non-linear least squares regression analysis, to estimate IC50 values.

[6] = system: Streptococcus pyogenes; assay: Antibacterial MIC, broth microdilution with Alamar Blue; assay type: cell-based
Method: (§3) For susceptibility testing, 10 μL of glycerol stock was suspended in a 10 mL shake flask culture of chemically defined Isosensitest broth (Oxoid) supplemented with 2% w/v glucose. A sample of the shake flask culture was diluted to 1×10^6 cells/mL in media and added to 96-well test plates (100 μL per well) containing test compounds dispensed in DMSO (2 μL). After an incubation period (30° C.) determined from the strain specific doubling time, a 0.03% w/v aqueous solution of resazurin (10 μL) was added and the plates were allowed to incubate; each well was then scored for dye reduction.

[7] = system: S. aureus 13709 (MRSA); assay: as above; assay type: cell-based, Staphylococcus aureus; conditions: for MIC MRSA: Table 6
Method: as §3

[8] = target: S. pyogenes DHFR (Streptococcus pyogenes, UniProt Q9A091); assay: S. pyogenes DHFR enzyme inhibition assay; assay type: biochemical; conditions: average of at least three measurements
Chain of S. pyogenes DHFR (Q9A091 1-165): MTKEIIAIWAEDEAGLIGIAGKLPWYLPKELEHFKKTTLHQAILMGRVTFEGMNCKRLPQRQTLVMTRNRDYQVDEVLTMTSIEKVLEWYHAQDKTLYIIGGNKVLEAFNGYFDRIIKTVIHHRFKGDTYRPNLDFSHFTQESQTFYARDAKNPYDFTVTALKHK
Method: as §2

[9] = target: S. aureus DHFR (Staphylococcus aureus, UniProt P0A017); assay type: biochemical; conditions: average of at least three measurements
Method: as §2

[10] = C. glabrata, Inact: not active at 2 mM (~600 μg/mL)
[11] = Table 7, read-out: IC50 (CgDHFR)
[12] = Table 11, read-out: CgDHFR IC50
[13] = Table 4, read-out: IC50 (ChDHFR)

COc1cc(C(C)C#Cc2cnc(N)nc2N)cc(OC)c1OC (stereo not shown) [Compound 2, 2,4-Diamino-5-(3-(3,4,5-trimethoxyphenyl)but-1-ynyl)pyrimidine]
IC50 ([1]; Table 3, read-out: CgDHFR IC50): 36 nM
Antifungal activity MIC [2, 10]: Inact

COc1cc(C(C#Cc2cnc(N)nc2N)OC)cc(OC)c1OC (stereo not shown) [Compound 4, 5-[3-methoxy-3-(3,4,5-trimethoxyphenyl)prop-1-yn-1-yl]pyrimidine-2,4-diamine]
IC50 ([1]; Table 3, read-out: CgDHFR IC50): 450 nM
Antifungal activity MIC [2, 10]: Inact

CCc1nc(N)nc(N)c1C#CC(C)c1cc(OC)cc(N2C[C@@H](C)O[C@@H](C)C2)c1 (mixture of isomers) [Compound 157]
IC50 ([3]; Table 7): 200 ± 4.5 nM
Selectivity [1]: 5.0 ± 1
IC50 [1, 11]: 38 ± 2 nM
MIC (Cg) ([2]; C. glabrata): 13 µg/mL (≈ 31.7 µM)

CN(Cc1cnc2nc(N)nc(N)c2n1)c1ccc(C(=O)N[C@@H](CCC(=O)O)C(=O)O)cc1 [methotrexate, (S)-2-(4-(((2,4-diaminopteridin-6-yl)methyl)methylamino)benzamido)pentanedioic acid, reference compound]
IC50 ([4]; IC50 against ChDHFR): 23 nM

COc1cc(C(O)C#Cc2c(C)nc(N)nc2N)cc(OC)c1OC (stereo not shown) [Compound 7, 3-(2,4-diamino-6-methylpyrimidin-5-yl)-1-(3,4,5-trimethoxyphenyl)prop-2-yn-1-ol]
IC50 ([1]; CgDHFR IC50, Table 3): 39 nM
Antifungal activity MIC [2, 10]: Inact

COc1cc(-c2cc(C)cc(C)c2)cc([C@@H](C)C#Cc2c(C)nc(N)nc2N)c1 [Compound 140]
IC50 [5]: 47000 nM
IC50 against CgDHFR [1]: subnanomolar
IC50 [1, 11]: 0.55 ± 0.3 nM
IC50 [1, 12]: 0.55 nM
MIC (Cg) ([2]; C. glabrata): 3.1 µg/mL (≈ 8.02 µM)
Antifungal activity MIC ([2]; Table 11, C. glabrata): 3 µg/mL
MIC S. pyogenes [6]: 0.1 µg/mL (≈ 0.259 µM)
MIC S. pyogenes ([6]; Table 6): 0.097 µg/mL (≈ 0.251 µM)
MIC S. aureus / MRSA [7]: 5.8 µg/mL (≈ 15 µM)
MIC MRSA [7]: 5.76 µg/mL (≈ 14.9 µM)

COc1cc(C(C#Cc2c(C)nc(N)nc2N)OC)cc(OC)c1OC (stereo not shown) [Compound 8, 5-[3-methoxy-3-(3,4,5-trimethoxyphenyl)prop-1-yn-1-yl]-6-methylpyrimidine-2,4-diamine]
IC50 ([1]; CgDHFR IC50, Table 3): 30 nM
Antifungal activity MIC [2, 10]: Inact

CCc1nc(N)nc(N)c1C#CCc1cc(OC)ccc1OC [Compound 11]
IC50 ([1]; Table 3, read-out: CgDHFR IC50): 8.2 nM
IC50 ([1]; read-out: IC50 against CgDHFR): ≤ 25 nM
Antifungal activity MIC [2, 10]: 78 µg/mL

CCC(c1cc(OC)c(OC)c(OC)c1)c1cnc(N)nc1N (racemic) [C7-ethyl TMP (rac), reference compound]
IC50 ([4]; read-out: IC50 against ChDHFR): 4000 nM

COc1cc(C(O)C#Cc2cnc(N)nc2N)cc(OC)c1OC (stereo not shown) [Compound 3, 3-(2,4-diaminopyrimidin-5-yl)-1-(3,4,5-trimethoxyphenyl)prop-2-yn-1-ol]
IC50 ([1]; Table 3, read-out: CgDHFR IC50): 2700 nM
MIC ([2]; Nakaseomyces glabratus, C. glabrata, Inact: not active at 2 mM (~600 μg/mL), read-out: Antifungal activity MIC): 328 µg/mL (≈ 993 µM)

COc1cc(-c2c(C(C)C)cccc2C(C)C)cc(C(C)C#Cc2c(C)nc(N)nc2N)c1 (stereo not shown) [Compound D26I, 5-[3-(5-methoxy-2′6′-diisopropylbiphenyl-3-yl)but-1-yn-1-yl]-6-methylpyrimidine-2,4-diamine]
IC50 [4, 13]: 10 nM

COc1cc(-c2c(C)cccc2C)cc(C(C)C#Cc2c(C)nc(N)nc2N)c1 (stereo not shown) [Compound D26M, 5-[3-(5-methoxy-2′6′-dimethylbiphenyl-3-yl)but-1-yn-1-yl]-6-methylpyrimidine-2,4-diamine]
IC50 [4, 13]: 2.1 ± 0.5 nM

COc1cc(-c2ccccc2C)ccc1C(C)C#Cc1c(C)nc(N)nc1N (stereo not shown) [Compound F2M, 5-[3-(3-methoxy-2′-methylbiphenyl-4-yl)but-1-yn-1-yl]-6-methylpyrimidine-2,4-diamine]
IC50 ([4]; IC50 (ChDHFR), Table 4): 36 ± 0.6 nM
Selectivity Ratio (IC50 ChDHFR/IC50 hDHFR) ([4]; Table 4): 77

COc1cc(-c2ccccc2C)cc(C(C)C#Cc2c(C)nc(N)nc2N)c1 (stereo not shown) [Compound D6M, 5-[3-(5-methoxy-6′-methylbiphenyl-3-yl)but-1-yn-1-yl]-6-methylpyrimidine-2,4-diamine]
IC50 [4, 13]: 2.1 ± 0.3 nM

COc1cc(-c2c(C)cccc2C)ccc1C(C)C#Cc1c(C)nc(N)nc1N (stereo not shown) [Compound F26M, 5-[3-(3-methoxy-2′6′-dimethylbiphenyl-4-yl)but-1-yn-1-yl]-6-methylpyrimidine-2,4-diamine]
IC50 ([3]; Table 4): 3370 ± 15 nM
Selectivity Ratio (IC50 ChDHFR/IC50 hDHFR) ([4]; Table 4): 455
IC50 [4, 13]: 7.4 ± 1.9 nM

COc1cc(-c2ccc(C)cc2)cc([C@@H](C)C#Cc2c(C)nc(N)nc2N)c1 [Compound 141]
IC50 [8]: 350 ± 44 nM
IC50 [9]: 410 ± 36 nM
IC50 [5]: 55000 nM
IC50 against CgDHFR [1]: subnanomolar
IC50 [1, 11]: 0.6 ± 0.3 nM
IC50 [1, 12]: 0.6 nM
MIC (Cg) ([2]; C. glabrata): 1.5 µg/mL (≈ 4.03 µM)
Antifungal activity MIC ([2]; Table 11, C. glabrata): 1.5 µg/mL
MIC S. pyogenes ([6]; Table 6): 0.024 µg/mL (≈ 0.0644 µM)
MIC MRSA [7]: 0.71 µg/mL (≈ 1.91 µM)

COc1cc(C(C)C#Cc2c(C)nc(N)nc2N)cc(N2CCN(C)CC2)c1 (stereo not shown) [Compound 158]
IC50 ([3]; Table 7): 280 ± 17 nM
Selectivity [1]: 9 ± 1
IC50 [1, 11]: 30 ± 3 nM
MIC (Cg) ([2]; C. glabrata): 95 µg/mL (≈ 250 µM)

COc1ccc(OC)c(CC#Cc2c(C)nc(N)nc2N)c1 [Compound 10]
IC50 ([1]; Table 3, read-out: CgDHFR IC50): 32 nM
Antifungal activity MIC [2, 10]: 56 µg/mL

COc1cc(C(C)c2cnc(N)nc2N)cc(OC)c1OC (racemic) [C7-methyl TMP (rac), reference compound]
IC50 ([4]; read-out: IC50 against ChDHFR): 340000 nM

COc1ccc(OC)c(CC#Cc2cnc(N)nc2N)c1 [Compound 9]
IC50 ([1]; Table 3, read-out: CgDHFR IC50): 21 nM
IC50 ([1]; read-out: IC50 against CgDHFR): ≤ 25 nM
Antifungal activity MIC [2, 10]: 72 µg/mL

COc1cc(-c2ccccc2)cc([C@H](C)C#Cc2c(C)nc(N)nc2N)c1 (single isomer, unassigned) [D (S), 5-[3-(5-methoxy-biphenyl-3-yl)but-1-yn-1-yl]-6-methylpyrimidine-2,4-diamine]
IC50 ([4]; IC50 (ChDHFR), Table 4): 30 nM
